Key:
[1] = test system: Arabidopsis WT (Col0), OE At, OE Pa, OE M3 lines; assay: Arabidopsis seed germination test on herbicide-containing 1/2 MS medium; format: in vivo, Arabidopsis thaliana; conditions: 2 weeks
Description: In order to evaluate the resistance of different HPPD overexpression lines to herbicides, Arabidopsis seed germination tests were performed on media containing different concentrations of herbicides. T3 generation Arabidopsis seeds and Co10 (WT) seeds were performed steam surface sterilization (concentrated HCl: NaClO=1:5, v/v) for 3 h. Seeds of OE At (OE At #1, OE At #2), OE Pa (OE Pa #1, OE Pa #2), OE M3 (OE M3 #1, OE M3 #2) and Co10 (WT) were dibbled together in ^1/2 MS medium (0.5 x MS salt, 1% sucrose and 0.8% agar) in a 24-well plate, and the medium contained different concentrations (0, 31.25, 62.5, 125, 500 and 2000 nM) of mesotrione (Sigma Aldrich, USA) and sulcotrione (Sigma Aldrich, USA). Then, the plate dibbled seeds was placed in the dark at 4° C. for 3 d, and then transferred to a growth chamber at 22° C. (16 h light/8 h dark) for 2 weeks. Three biological replicates were performed per treatment per species. After 2 weeks, the test results were photographed.

[2] = test system: GmHPPD, HST, HPT, MPQMT and TC gene expression in soybean seedlings; assay: qPCR of HPPD and tocopherol biosynthesis genes in soybean after herbicide treatment; format: in vivo; conditions: 20 μM, 12 h
Description: 4 week-old T1 generation seedlings of WT, OE GmHPPD and OE PaHPPD-SDM were used as materials to set up a treatment group and a control group, respectively, wherein the treatment group was continuously cultured in ½ MS liquid medium containing 20 μM mesotrione for 12 h. The total RNA of related materials was extracted using Super Fast Plant RNA Extraction Kit (Beijing Huayueyang Biological Technology Co., Ltd., China). The concentration of RNA samples was measured using NanoDrop ND1000 (Thermo Scientific, USA). RNA samples with an absorbance ratio (at wavelengths of 260/280 nm and 260/230 nm) of approximately 2.0 were selected. The total RNA (1,000 ng) was then used for synthesis of cDNA for reverse transcription using a cDNA synthesis kit (One-step Removal of Transcript gDNA and cDNA Synthesis Super Kit, TransGen).
As for quantitative reverse transcription PCR analysis, 3.0 μL cDNA was used as a template in a 20 μL reaction system, and gene-specific primers such as qGmHPPD F and qGmHPPD R were used for GmHPPD gene, qGmHST F and qGmHST R were used for […] gene (alkapton lycopene transferase gene), qGmHPT F and qGmHPT R were used for GmHPT or VTE2 genes, GmMPQMT F and MPQMT R were used for GmMPQMT methyl transferase genes (also known as VTE3), GmTC F and GmTC R were used for GmTC genes (also known as VTE1, tocopherol cyclase gene). These VTE (1, 2 and 3) genes were selected because they encode the key enzymes involved in tocopherol biosynthesis. Three technical repetitions were performed on the Bio-Rad CFX96 real-time system. REST software was used for statistical analysis.

Structure (SMILES): CS(=O)(=O)c1ccc(C(=O)C2C(=O)CCCC2=O)c([N+](=O)[O-])c1 [mesotrione]
- concentration giving albino death / severely inhibited growth ([1]; OE At (two lines) and WT): 31.25 nM
- concentration at which seedlings grow normally ([1]; OE Pa (two lines), T3 seeds): 62.5 nM
- expression levels of GmHPPD and MPQMT genes compared with control ([2]; OE GmHPPD T1 line): decreased
- expression levels of HST, HPT and TC genes compared with control ([2]; OE GmHPPD T1 line): increased
- expression levels of GmHPPD and HPT genes compared with control ([2]; OE PaHPPD-SDM T1 line): up-regulated
- expression levels of HST, MPQMT and TC genes compared with control ([2]; OE PaHPPD-SDM T1 line): almost unchanged
- expression of GmHPPD, HST, HPT, MPQMT and TC genes compared with control ([2]; wild-type William 82): significantly reduced

Reference: patent US11952582B2, “Herbicide-resistance gene and application thereof in plant breeding” (priority 2017, dated 2024)
